The source of these data is patent publication US20220323406A1, “METHODS AND COMPOSITIONS FOR DIFFERENTIATING STEM CELLS” (Massachusetts Institute of Technology, priority 2019, published 2022).

The test system of experiment [1] is ENR+CD organoids (ISC to Paneth cell differentiation). The experiment can be described thus: Primary screen: basal (non-stimulated) lysozyme secretion LYZ.NS, 2.5-D 384-well ENR+CD organoid differentiation. It is filed as cell-based, mouse. The settings on record: primary screen; for Z.LYZ.NS: standard z score. From the text: (§1) High-throughput screening.
For experiment [2] the test system is unchanged. The experiment can be described thus: Primary screen: CCh-stimulated lysozyme secretion LYZ.S, 2.5-D 384-well ENR+CD organoid differentiation. It is filed as cell-based, mouse. The settings on record: primary screen.
Source text: as §1

Another experiment deals with ENR+CD organoids. The experiment can be described thus: Primary screen: ATP (CellTiter-Glo 3D, CTG) cell number/viability, 2.5-D 384-well ENR+CD organoids.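 For all read-outs here: compounds given at plating and again on day 3 over a 6-day differentiation from ENR+CV stem-cell-enriched precursors, ATP measured on day 6, plate median as control.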 The settings on record: primary screen; for Z.CTG: standard z score.
[3] abbreviates: 1st dose row of the treatment (0.08 uM by row order; dose not reprinted).
Setting [4] is: 2nd dose row of the treatment (0.40 uM by row order; dose not reprinted).
[5] abbreviates: 3rd dose row of the treatment (2.00 uM by row order; dose not reprinted).
Where [6] appears, read: 4th dose row of the treatment (10.00 uM by row order; dose not reprinted).
Where [7] appears, read: dose 0.08 uM, FC vs plate median.
The mark [8] stands for this setting: dose 0.40 uM, FC vs plate median.
Setting [9] is: dose 2.00 uM, FC vs plate median.
[10] abbreviates: dose 10.00 uM, FC vs plate median.

Consider `O=C(O)C(Cc1ccccc1[N+](=O)[O-])=NNc1nc(-c2ccc(Cl)c(Cl)c2)cs1` (mixture of isomers) [4EGI-1], for which the “SSMD.LYZ.NS_Rep (strictly standardized mean difference)” value was 0.378 in experiment [1] (setting [3]), 0.264 in experiment [1] (setting [4]), 0.252 in experiment [1] (setting [5]) and −0.257 in experiment [1] (setting [6]). Besides, the Dose.FC.LYZ.NS in experiment [1] (dose 0.08 uM) is on record as 0.110 log2 fold change; in experiment [1] (dose 0.40 uM) it was 0.036 log2 fold change; in experiment [1] (dose 2.00 uM), 0.069 log2 fold change; in experiment [1] (dose 10.00 uM) it was −0.034 log2 fold change. In addition, the “Z.LYZ.NS (standard z score)” value was 0.956 in experiment [1] (dose 0.08 uM), 0.315 in experiment [1] (dose 0.40 uM), 0.597 in experiment [1] (dose 2.00 uM) and −0.300 in experiment [1] (dose 10.00 uM). The “SSMD.LYZ.S_Rep (strictly standardized mean difference)” value in experiment [2] (setting [3]) is reported as −0.264; in experiment [2] (setting [4]) it was 0.326; in experiment [2] (setting [5]) it was −0.328; in experiment [2] (setting [6]), 0.189. For the same compound, the “Z.LYZ.S (standard z score)” value in experiment [2] (setting [3]) is recorded as −0.236; in experiment [2] (setting [4]) it was 0.352; in experiment [2] (setting [5]), −0.380; in experiment [2] (setting [6]) it was 0.366. The Dose.FC.LYZ.S in experiment [2] (dose 0.08 uM) was −0.037 log2 fold change; in experiment [2] (dose 0.40 uM), 0.054 log2 fold change; in experiment [2] (dose 2.00 uM), −0.059 log2 fold change; in experiment [2] (dose 10.00 uM) it was 0.057 log2 fold change. Besides, the “SSMD.CTG.Rep (strictly standardized mean difference)” value in the experiment with ENR+CD organoids (setting [3]) is recorded as −0.352; in the experiment with ENR+CD organoids (setting [4]), −0.158; in the experiment on ENR+CD organoids (setting [5]), 0.407; in the experiment on ENR+CD organoids (setting [6]), −0.283. Also, the Dose.FC.CTG is listed as −0.160 log2 fold change in the experiment with ENR+CD organoids (dose 0.08 uM), −0.131 log2 fold change in the experiment on ENR+CD organoids (dose 0.40 uM), 0.127 log2 fold change in the experiment on ENR+CD organoids (dose 2.00 uM) and −0.109 log2 fold change in the experiment with ENR+CD organoids (dose 10.00 uM). The “Z.CTG (standard z score)” value is −0.383 with ENR+CD organoids (dose 0.08 uM), −0.314 in the experiment with ENR+CD organoids (dose 0.40 uM), 0.304 in the experiment on ENR+CD organoids (dose 2.00 uM) and −0.261 in the experiment with ENR+CD organoids (dose 10.00 uM).
As to `C[C@@H]1CN(CC(=O)Nc2ccc3c(c2)Cc2cccc(-c4cc(=O)cc(N5CCOCC5)o4)c2S3)C[C@H](C)O1` [KU-60019], the “Dose.FC.LYZ.NS (log2 fold change)” value in experiment [1] (dose 0.08 uM) is on record as 0.042; in experiment [1] (dose 0.40 uM), −0.001; in experiment [1] (dose 2.00 uM) it was −0.015; in experiment [1] (dose 10.00 uM), −0.088. Also, the “Z.LYZ.NS (standard z score)” value in experiment [1] (dose 0.08 uM) is listed as 0.365; in experiment [1] (dose 0.40 uM) it was −0.012; in experiment [1] (dose 2.00 uM), −0.132; in experiment [1] (dose 10.00 uM) it was −0.769. Further, the “Dose.FC.LYZ.S (log2 fold change)” value is on record as 0.230 in experiment [2] (dose 0.08 uM), 0.073 in experiment [2] (dose 0.40 uM), −0.049 in experiment [2] (dose 2.00 uM) and −0.222 in experiment [2] (dose 10.00 uM). Further, the “Dose.FC.CTG (log2 fold change)” value with ENR+CD organoids (dose 0.08 uM) was 0.114; in the experiment with ENR+CD organoids (dose 0.40 uM), 0.039; with ENR+CD organoids (dose 2.00 uM), 0.121; in the experiment with ENR+CD organoids (dose 10.00 uM), −0.522.
As to `CCCCCCCCCCCCCCCCn1cc[n+](Cc2ccccc2)c1C.[I-]` [NH125], the Z.LYZ.NS in experiment [1] (dose 0.08 uM) is −0.301; in experiment [1] (dose 0.40 uM), −1.634; in experiment [1] (dose 2.00 uM), −1.904; in experiment [1] (dose 10.00 uM), −2.293. The Dose.FC.LYZ.NS is −0.035 log2 fold change in experiment [1] (setting [7]), −0.188 log2 fold change in experiment [1] (setting [8]), −0.219 log2 fold change in experiment [1] (setting [9]) and −0.263 log2 fold change in experiment [1] (setting [10]). For the same compound, the Dose.FC.LYZ.S is reported as −0.114 log2 fold change in experiment [2] (setting [7]), −0.237 log2 fold change in experiment [2] (setting [8]), −0.358 log2 fold change in experiment [2] (setting [9]) and −0.374 log2 fold change in experiment [2] (setting [10]). For the same compound, the Z.CTG in the experiment on ENR+CD organoids (dose 0.08 uM) was −0.829; in the experiment with ENR+CD organoids (dose 0.40 uM) it was −1.213; in the experiment on ENR+CD organoids (dose 2.00 uM), −2.641; with ENR+CD organoids (dose 10.00 uM) it was −4.268. The Dose.FC.CTG in the experiment with ENR+CD organoids (setting [7]) is given as −0.347 log2 fold change; in the experiment on ENR+CD organoids (setting [8]) it was −0.508 log2 fold change; with ENR+CD organoids (setting [9]), −1.106 log2 fold change; in the experiment on ENR+CD organoids (setting [10]), −1.787 log2 fold change.
On to `Nc1nc(N)c2nc(-c3cccc(O)c3)c(-c3cccc(O)c3)nc2n1` [TG100-115], for which the Dose.FC.LYZ.NS in experiment [1] (dose 0.08 uM) is on record as 0.208 log2 fold change; in experiment [1] (dose 0.40 uM), −0.026 log2 fold change; in experiment [1] (dose 2.00 uM) it was 0.003 log2 fold change; in experiment [1] (dose 10.00 uM), −0.026 log2 fold change. Further, the “Z.LYZ.NS (standard z score)” value in experiment [1] (dose 0.08 uM) is recorded as 1.812; in experiment [1] (dose 0.40 uM), −0.223; in experiment [1] (dose 2.00 uM), 0.025; in experiment [1] (dose 10.00 uM), −0.223. Besides, the Dose.FC.LYZ.S in experiment [2] (dose 0.08 uM) is listed as 0.073 log2 fold change; in experiment [2] (dose 0.40 uM) it was 0.032 log2 fold change; in experiment [2] (dose 2.00 uM), −0.019 log2 fold change; in experiment [2] (dose 10.00 uM), −0.100 log2 fold change. Besides, the Dose.FC.CTG in the experiment with ENR+CD organoids (dose 0.08 uM) was −0.256 log2 fold change; in the experiment with ENR+CD organoids (dose 0.40 uM), 0.066 log2 fold change; in the experiment on ENR+CD organoids (dose 2.00 uM), −0.013 log2 fold change; in the experiment with ENR+CD organoids (dose 10.00 uM), −0.116 log2 fold change. Moreover, the “Z.CTG (standard z score)” value in the experiment on ENR+CD organoids (dose 0.08 uM) was −0.611; in the experiment on ENR+CD organoids (dose 0.40 uM), 0.158; in the experiment on ENR+CD organoids (dose 2.00 uM), −0.031; in the experiment with ENR+CD organoids (dose 10.00 uM) it was −0.277.
